Data reported in ChEMBL document CHEMBL3526086, “Identification of the oxidative and conjugative enzymes involved in the biotransformation of brivanib” (Drug Metab Dispos, 2012).

Legend:
Type in all cases: ADME
[1] = molecular target: T1, Cytochrome P450 2A6 (Homo sapiens, UniProt P11509); test: Drug metabolism assessed as human CYP2A6-mediated (R)-1-(4-(4-fluoro-2-(hydroxymethyl)-1H-indol-5-yloxy)-5-methylpyrrolo[1,2-f][1,2,4]triazin-6-yloxy)propan-2-ol formation at 2 and 20 uM for 20 mins by LC/MS analysis in presence of NADPH; conditions: recombinant enzyme
T1 sequence (P11509 whole entry): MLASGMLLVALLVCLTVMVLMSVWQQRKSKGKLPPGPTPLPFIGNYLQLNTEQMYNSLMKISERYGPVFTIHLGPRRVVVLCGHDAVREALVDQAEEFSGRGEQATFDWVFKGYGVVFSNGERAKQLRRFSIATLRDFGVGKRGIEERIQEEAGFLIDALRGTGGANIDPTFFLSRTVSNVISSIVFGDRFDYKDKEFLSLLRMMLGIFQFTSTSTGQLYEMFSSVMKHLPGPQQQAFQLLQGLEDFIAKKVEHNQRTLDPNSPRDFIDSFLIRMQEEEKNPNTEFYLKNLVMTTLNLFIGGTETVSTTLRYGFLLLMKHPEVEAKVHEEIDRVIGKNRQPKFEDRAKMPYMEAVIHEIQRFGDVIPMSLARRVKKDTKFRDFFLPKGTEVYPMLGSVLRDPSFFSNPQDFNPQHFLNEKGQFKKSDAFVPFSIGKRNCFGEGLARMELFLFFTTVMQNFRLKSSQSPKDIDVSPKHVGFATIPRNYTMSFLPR

[2] = molecular target: T1, Cytochrome P450 2A6; test: Drug metabolism in human liver microsomes assessed as 2 uM tranylcypromine-mediated inhibition of CYP2A6-mediated (R)-1-(4-(4-fluoro-2-(hydroxymethyl)-1H-indol-5-yloxy)-5-methylpyrrolo[1,2-f][1,2,4]triazin-6-yloxy)propan-2-ol formation at 2 and 20 uM for 30 mins by LC/MS analysis; conditions: 0.5 h
[3] = molecular target: Cytochrome P450 2D6 (Homo sapiens, UniProt P10635); test: Drug metabolism in human liver microsomes assessed as monoclonal antibody-mediated inhibition of CYP2D6-mediated(R)-1-(4-(4-fluoro-2-(hydroxymethyl)-1H-indol-5-yloxy)-5-methylpyrrolo[1,2-f][1,2,4]triazin-6-yloxy)propan-2-ol formation at 2 and 20 uM for 30 mins by LC/MS analysis; conditions: 0.5 h
Chain of Cytochrome P450 2D6 (P10635 whole entry): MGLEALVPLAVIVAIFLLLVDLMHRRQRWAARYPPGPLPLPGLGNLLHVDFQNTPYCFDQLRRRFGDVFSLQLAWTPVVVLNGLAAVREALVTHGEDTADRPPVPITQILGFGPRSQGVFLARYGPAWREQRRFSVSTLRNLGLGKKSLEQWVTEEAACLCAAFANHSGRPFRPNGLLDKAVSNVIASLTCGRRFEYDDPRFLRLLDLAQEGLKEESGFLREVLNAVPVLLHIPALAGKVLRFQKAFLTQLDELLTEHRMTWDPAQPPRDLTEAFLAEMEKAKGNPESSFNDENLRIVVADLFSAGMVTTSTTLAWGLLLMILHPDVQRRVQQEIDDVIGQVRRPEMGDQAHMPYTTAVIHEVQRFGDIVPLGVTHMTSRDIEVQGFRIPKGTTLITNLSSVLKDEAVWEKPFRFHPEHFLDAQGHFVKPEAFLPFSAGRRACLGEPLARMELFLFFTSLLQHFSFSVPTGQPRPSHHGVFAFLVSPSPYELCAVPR

[4] = molecular target: T1, Cytochrome P450 2A6; test: Drug metabolism in human liver microsomes assessed as monoclonal antibody-mediated inhibition of CYP2A6-mediated (R)-1-(4-(4-fluoro-2-(hydroxymethyl)-1H-indol-5-yloxy)-5-methylpyrrolo[1,2-f][1,2,4]triazin-6-yloxy)propan-2-ol formation at 2 and 20 uM for 30 mins by LC/MS analysis; conditions: 0.5 h
[5] = test system: Liver microsome; test: Drug level in human liver microsomes assessed as compound formation treated with 2 uM [14C]brivanib alaninate for 60 mins by LC/MS analysis; conditions: 1 h
[6] = molecular target: T2, Cytochrome P450 2B6 (Homo sapiens, UniProt P20813); test: Drug metabolism assessed as human CYP2B6-mediated (R)-1-(4-(4-fluoro-2-(hydroxymethyl)-1H-indol-5-yloxy)-5-methylpyrrolo[1,2-f][1,2,4]triazin-6-yloxy)propan-2-ol formation at 2 and 20 uM for 20 mins by LC/MS analysis in presence of NADPH; conditions: recombinant enzyme
T2 sequence (P20813 whole entry): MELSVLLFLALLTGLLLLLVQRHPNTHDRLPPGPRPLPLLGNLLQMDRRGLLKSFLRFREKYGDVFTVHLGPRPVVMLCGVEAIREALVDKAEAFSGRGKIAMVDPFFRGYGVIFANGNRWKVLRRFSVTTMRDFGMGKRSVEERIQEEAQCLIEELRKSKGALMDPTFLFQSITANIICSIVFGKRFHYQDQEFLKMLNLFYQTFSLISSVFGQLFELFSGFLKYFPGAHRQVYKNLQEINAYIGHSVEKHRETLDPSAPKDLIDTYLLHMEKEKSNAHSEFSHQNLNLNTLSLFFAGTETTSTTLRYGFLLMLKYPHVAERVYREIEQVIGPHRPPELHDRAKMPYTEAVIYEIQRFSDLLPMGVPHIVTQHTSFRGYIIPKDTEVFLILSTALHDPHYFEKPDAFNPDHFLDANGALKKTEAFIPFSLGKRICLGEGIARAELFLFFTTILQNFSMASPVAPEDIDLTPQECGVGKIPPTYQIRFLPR

[7] = molecular target: T3, Cytochrome P450 1A2 (Homo sapiens, UniProt P05177); test: Activity of human CYP1A2 assessed as intrinsic clearance for enzyme-mediated (R)-1-(4-(4-fluoro-2-(hydroxymethyl)-1H-indol-5-yloxy)-5-methylpyrrolo[1,2-f][1,2,4]triazin-6-yloxy)propan-2-ol formation per picomole enzyme in presence of NADPH
T3 sequence (P05177 whole entry): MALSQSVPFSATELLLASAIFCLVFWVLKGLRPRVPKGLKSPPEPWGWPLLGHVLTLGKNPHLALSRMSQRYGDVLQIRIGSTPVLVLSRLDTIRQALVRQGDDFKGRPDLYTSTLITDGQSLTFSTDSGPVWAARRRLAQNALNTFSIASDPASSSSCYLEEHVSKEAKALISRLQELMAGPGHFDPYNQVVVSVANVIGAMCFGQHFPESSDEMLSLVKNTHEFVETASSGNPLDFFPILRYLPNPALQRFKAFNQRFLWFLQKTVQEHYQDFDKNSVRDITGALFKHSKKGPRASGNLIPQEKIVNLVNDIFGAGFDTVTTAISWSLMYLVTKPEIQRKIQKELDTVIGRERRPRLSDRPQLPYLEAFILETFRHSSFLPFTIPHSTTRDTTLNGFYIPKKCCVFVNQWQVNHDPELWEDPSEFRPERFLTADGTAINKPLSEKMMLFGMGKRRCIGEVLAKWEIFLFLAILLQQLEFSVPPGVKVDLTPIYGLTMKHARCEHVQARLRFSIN

[8] = molecular target: Cytochrome P450 2C9 (Homo sapiens, UniProt P11712); test: Drug metabolism in human liver microsomes assessed as 10 uM sulfaphenazole-mediated inhibition of CYP2C9-mediated (R)-1-(4-(4-fluoro-2-(hydroxymethyl)-1H-indol-5-yloxy)-5-methylpyrrolo[1,2-f][1,2,4]triazin-6-yloxy)propan-2-ol formation at 2 and 20 uM for 30 mins by LC/MS analysis; conditions: 0.5 h
Chain of Cytochrome P450 2C9 (P11712 whole entry): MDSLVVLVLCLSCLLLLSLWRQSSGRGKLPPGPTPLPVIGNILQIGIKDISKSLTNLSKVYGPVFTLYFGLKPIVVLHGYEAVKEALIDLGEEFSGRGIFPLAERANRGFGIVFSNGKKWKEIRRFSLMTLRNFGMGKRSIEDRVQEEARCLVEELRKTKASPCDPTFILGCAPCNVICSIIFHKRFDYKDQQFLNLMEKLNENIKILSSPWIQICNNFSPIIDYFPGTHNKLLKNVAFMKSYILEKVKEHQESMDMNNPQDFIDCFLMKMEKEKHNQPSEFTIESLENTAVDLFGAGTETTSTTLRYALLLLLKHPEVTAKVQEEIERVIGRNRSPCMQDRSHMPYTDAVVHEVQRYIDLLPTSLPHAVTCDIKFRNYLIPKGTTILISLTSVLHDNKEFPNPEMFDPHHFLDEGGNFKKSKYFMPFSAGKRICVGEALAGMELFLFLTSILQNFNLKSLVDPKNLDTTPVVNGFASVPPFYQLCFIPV

Drug metabolism [1]: metabolite_detected
Drug metabolism [2]: metabolite_detected
Drug metabolism [3]: metabolite_detected
Drug metabolism [4]: metabolite_detected
Drug metabolism [5]: metabolite_detected
Drug metabolism [6]: metabolite_detected
CL [7]: 0.031 µL/min
Drug metabolism [8]: metabolite_detected
Compound: Cc1cc2c(F)c(Oc3ncnn4cc(OC[C@@H](C)O)c(C)c34)ccc2[nH]1 [BRIVANIB]
